The values below come from patent US20110190235A1, “BORON-CONTAINING SMALL MOLECULES AS ANTIPROTOZOAL AGENTS” (Anacor Pharmaceuticals, Inc., priority 2009, published 2011).

For data set [1], the system named is bloodstream-form trypanosome T. brucei brucei 427 strain. As to the kind of experiment: Trypanosoma brucei brucei high-throughput in vitro drug sensitivity assay (resazurin). The class given is cell-based. To be noted: Trypanosoma brucei.
Data set [2] in a line: L929 cytotoxicity evaluation (resazurin). The class given is cell-based. The following applies: mouse, 72 hrs incubation, read-out: Cytotox L-929 IC50. In short, it runs like this: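 Mouse L929 fibroblasts (1×10^4/mL seeding, attached overnight) were treated 72 h at 37 °C, 5% CO2 with serially diluted compounds in DMSO in D-MEM/10% FBS. Viability read by resazurin fluorescence after 3–4 h (ex 544/em 590 nm); IC50 from sigmoidal fits of single data points.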
On the technique in general: The colour change of resazurin is a common sign of viable cells or microbes.

The mark [3] stands for this setting: 72 hrs incubation, read-out: T.b. brucei IC50.
The mark [4] stands for this setting: 72 h, read-out: T.b. brucei IC50 (ug/mL).

Values after ≈ are worked out from the molar mass of the structure shown. Where two headings read alike, the source gives them in different places.

Consider `COc1cccc(OC)c1C(=O)Nc1ccc2c(c1)B(O)OC2(C)C` [compound 96, N-(1-Hydroxy-3,3-dimethyl-1,3-dihydro-benzo[c][1,2]oxaborol-6-yl)-2,6-dimethoxy-benzamide], for which the IC50 in data set [1] (setting [3]) came to 2.72 µg/mL (≈ 7.97 µM). Moreover, the IC50 at 72 h in data set [2] (L929 mouse fibroblast cells) is > 10 µg/mL.
As for `C=Cc1ccc(C(=O)Nc2ccc3c(c2)B(O)OC3(C)C)c(Cl)c1` [compound 97, 2-Chloro-N-(1-hydroxy-3,3-dimethyl-1,3-dihydro-benzo[c][1,2]oxaborol-6-yl)-4-vinyl-benzamide], in data set [1] (setting [4]), the IC50 is 0.05 µg/mL (≈ 0.146 µM). The IC50 at 72 h in data set [2] (L929 mouse fibroblast cells) was > 10 µg/mL.
With `C=CCc1ccc(C(=O)Nc2ccc3c(c2)B(O)OC3(C)C)c(Cl)c1` [compound 98, 4-Allyl-2-chloro-N-(1-hydroxy-3,3-dimethyl-1,3-dihydro-benzo[c][1,2]oxaborol-6-yl)-benzamide], in data set [1] (setting [3]), the IC50 came to 0.091 µg/mL (≈ 0.256 µM). Moreover, in data set [2] (L929 mouse fibroblast cells), the IC50 at 72 h is > 10 µg/mL.
For `CC(C)=Cc1ccc(C(=O)Nc2ccc3c(c2)B(O)OC3(C)C)c(Cl)c1` [compound 99, 2-Chloro-N-(1-hydroxy-3,3-dimethyl-1,3-dihydro-benzo[c][1,2]oxaborol-6-yl)-4-(2-methyl-propenyl)-benzamide], in that order: 0.19 µg/mL (≈ 0.514 µM) and 8.6 µg/mL (≈ 23.3 µM).
For `C=C(C)c1ccc(C(=O)Nc2ccc3c(c2)B(O)OC3(C)C)c(Cl)c1` [compound 100, 2-Chloro-N-(1-hydroxy-3,3-dimethyl-1,3-dihydro-benzo[c][1,2]oxaborol-6-yl)-4-isopropenyl-benzamide], in that order: 0.077 µg/mL (≈ 0.217 µM) and 9.55 µg/mL (≈ 26.9 µM).
As to `CCCc1ccc(C(=O)Nc2ccc3c(c2)B(O)OC3(C)C)c(Cl)c1` [compound 102, 2-Chloro-N-(1-hydroxy-3,3-dimethyl-1,3-dihydro-benzo[c][1,2]oxaborol-6-yl)-4-propyl-benzamide], in data set [1] (setting [3]), the IC50 turned out to be 0.125 µg/mL (≈ 0.35 µM). The IC50 at 72 h in data set [2] (L929 mouse fibroblast cells) is > 10 µg/mL.
Turning to `CC(C)Cc1ccc(C(=O)Nc2ccc3c(c2)B(O)OC3(C)C)c(Cl)c1` [compound 103], in data set [1] (setting [3]), the IC50 is 0.184 µg/mL (≈ 0.495 µM). In data set [2] (L929 mouse fibroblast cells), the IC50 at 72 h is > 10 µg/mL.
In the case of `CC1(C)OB(O)c2cc(NC(=O)c3c(F)ccc(F)c3Cl)ccc21` [compound 104, 2-Chloro-3,6-difluoro-N-(1-hydroxy-3,3-dimethyl-1,3-dihydro-benzo[c][1,2]oxaborol-6-yl)-benzamide], in data set [1] (setting [3]), the IC50 is 1.12 µg/mL (≈ 3.19 µM). The IC50 at 72 h in data set [2] (L929 mouse fibroblast cells) is > 10 µg/mL.
`CC1(C)OB(O)c2cc(NC(=O)c3c(Cl)cc(Cl)cc3Cl)ccc21` [compound 105, 2,4,6-Trichloro-N-(1-hydroxy-3,3-dimethyl-1,3-dihydro-benzo[c][1,2]oxaborol-6-yl)-benzamide]: the IC50 in data set [1] (setting [3]) was found to be 0.788 µg/mL (≈ 2.05 µM). The IC50 at 72 h in data set [2] (L929 mouse fibroblast cells) is > 10 µg/mL.
For `COc1cc(C(=O)Nc2ccc3c(c2)B(O)OC3(C)C)cc(OC)c1OC` [compound 106, N-(1-Hydroxy-3,3-dimethyl-1,3-dihydro-benzo[c][1,2]oxaborol-6-yl)-3,4,5-trimethoxy-benzamide], in that order: > 5 µg/mL and > 10 µg/mL.
For the compound `Cc1ccc(Cl)c(C(=O)Nc2ccc3c(c2)B(O)OC3(C)C)c1F` [compound 108, 6-Chloro-2-fluoro-N-(1-hydroxy-3,3-dimethyl-1,3-dihydro-benzo[c][1,2]oxaborol-6-yl)-3-methyl-benzamide], in data set [1] (setting [3]), the IC50 worked out at 0.378 µg/mL (≈ 1.09 µM). The IC50 at 72 h in data set [2] (L929 mouse fibroblast cells) was > 10 µg/mL.
For `CC1(C)OB(O)c2cc(NC(=O)c3c(C(F)(F)F)ccc(Cl)c3F)ccc21` [compound 109, 3-Chloro-2-fluoro-N-(1-hydroxy-3,3-dimethyl-1,3-dihydro-benzo[c][1,2]oxaborol-6-yl)-6-trifluoromethyl-benzamide], the IC50 in data set [1] (setting [3]) was determined as 0.379 µg/mL (≈ 0.944 µM). In addition, in data set [2] (L929 mouse fibroblast cells), the IC50 at 72 h was > 10 µg/mL.
The corresponding values for `CC1(C)OB(O)c2cc(NC(=O)c3c(F)c(F)c(F)c(F)c3F)ccc21` [compound 110, 2,3,4,5,6-Pentafluoro-N-(1-hydroxy-3,3-dimethyl-1,3-dihydro-benzo[c][1,2]oxaborol-6-yl)-benzamide] are > 5 µg/mL and > 10 µg/mL.
`CC1(C)OB(O)c2cc(NC(=O)c3cccc4ccccc34)ccc21` [compound 111, Naphthalene-1-carboxylic acid (1-hydroxy-3,3-dimethyl-1,3-dihydro-benzo[c][1,2]oxaborol-6-yl)-amide]: in data set [1] (setting [3]), the IC50 was determined as 1.23 µg/mL (≈ 3.71 µM). For the same compound, in data set [2] (L929 mouse fibroblast cells), the IC50 at 72 h is > 10 µg/mL.
The corresponding values for `CC1(C)OB(O)c2cc(NC(=O)c3cccc4cccnc34)ccc21` [compound 113, Quinoline-8-carboxylic acid (1-hydroxy-3,3-dimethyl-1,3-dihydro-benzo[c][1,2]oxaborol-6-yl)-amide] are > 5 µg/mL and > 10 µg/mL.
For `CC1(C)OB(O)c2cc(NC(=O)c3cccnc3)ccc21` [compound 115, N-(1-Hydroxy-3,3-dimethyl-1,3-dihydro-benzo[c][1,2]oxaborol-6-yl)-nicotinamide], the IC50 in data set [1] (setting [3]) was > 5 µg/mL. Besides, the IC50 at 72 h in data set [2] (L929 mouse fibroblast cells) was > 10 µg/mL.
For `CC1(C)OB(O)c2cc(NC(=O)c3ccncc3)ccc21` [compound 116, N-(1-Hydroxy-3,3-dimethyl-1,3-dihydro-benzo[c][1,2]oxaborol-6-yl)-isonicotinamide], in that order: > 5 µg/mL and > 10 µg/mL.
For `CC1(C)OB(O)c2cc(NC(=O)c3ccc4ccccc4n3)ccc21` [compound 117, Quinoline-2-carboxylic acid (1-hydroxy-3,3-dimethyl-1,3-dihydro-benzo[c][1,2]oxaborol-6-yl)-amide], in that order: 1.55 µg/mL (≈ 4.67 µM) and > 10 µg/mL.
As for `Cc1ccc(C(=O)Nc2ccc3c(c2)B(O)OC3(C)C)c(Cl)n1` [compound 118], in data set [1] (setting [3]), the IC50 was found to be 0.814 µg/mL (≈ 2.46 µM). In addition, in data set [2] (L929 mouse fibroblast cells), the IC50 at 72 h is > 10 µg/mL.
In the case of `CC1(C)OB(O)c2cc(NC(=O)c3cnccn3)ccc21` [compound 119, Pyrazine-2-carboxylic acid (1-hydroxy-3,3-dimethyl-1,3-dihydro-benzo[c][1,2]oxaborol-6-yl)-amide], the IC50 in data set [1] (setting [3]) is > 5 µg/mL. In addition, the IC50 at 72 h in data set [2] (L929 mouse fibroblast cells) was > 10 µg/mL.
In the case of `CC1(C)OB(O)c2cc(NC(=O)c3ccoc3)ccc21` [compound 120, Furan-3-carboxylic acid (1-hydroxy-3,3-dimethyl-1,3-dihydro-benzo[c][1,2]oxaborol-6-yl)-amide], the IC50 in data set [1] (setting [3]) was > 5 µg/mL. Moreover, the IC50 at 72 h in data set [2] (L929 mouse fibroblast cells) is > 10 µg/mL.
For the compound `Cc1occc1C(=O)Nc1ccc2c(c1)B(O)OC2(C)C` [compound 121, 2-Methyl-furan-3-carboxylic acid (1-hydroxy-3,3-dimethyl-1,3-dihydro-benzo[c][1,2]oxaborol-6-yl)-amide], the IC50 in data set [1] (setting [3]) amounted to 3.2 µg/mL (≈ 11.2 µM). Also, in data set [2] (L929 mouse fibroblast cells), the IC50 at 72 h was > 10 µg/mL.
As to `Cc1cc(C(=O)Nc2ccc3c(c2)B(O)OC3(C)C)c(C)o1` [compound 122, 2,5-Dimethyl-furan-3-carboxylic acid (1-hydroxy-3,3-dimethyl-1,3-dihydro-benzo[c][1,2]oxaborol-6-yl)-amide], the IC50 in data set [1] (setting [3]) was > 5 µg/mL. Moreover, the IC50 at 72 h in data set [2] (L929 mouse fibroblast cells) is > 10 µg/mL.
Turning to `CC1(C)OB(O)c2cc(NC(=O)c3cc[nH]n3)ccc21` [compound 123, 1H-Pyrazole-3-carboxylic acid (1-hydroxy-3,3-dimethyl-1,3-dihydro-benzo[c][1,2]oxaborol-6-yl)-amide], the IC50 in data set [1] (setting [3]) is > 5 µg/mL. Also, the IC50 at 72 h in data set [2] (L929 mouse fibroblast cells) is > 10 µg/mL.
In the case of `CC1(C)OB(O)c2cc(NC(=O)c3cccs3)ccc21` [compound 124, Thiophene-2-carboxylic acid (1-hydroxy-3,3-dimethyl-1,3-dihydro-benzo[c][1,2]oxaborol-6-yl)-amide], the IC50 in data set [1] (setting [3]) came out at 2.7 µg/mL (≈ 9.4 µM). In addition, the IC50 at 72 h in data set [2] (L929 mouse fibroblast cells) was > 10 µg/mL.
For `CC1(C)OB(O)c2cc(NC(=O)Cc3cccs3)ccc21` [compound 125, N-(1-Hydroxy-3,3-dimethyl-1,3-dihydro-benzo[c][1,2]oxaborol-6-yl)-2-thiophen-2-yl-acetamide], in that order: > 5 µg/mL and > 10 µg/mL.
For `CC1(C)OB(O)c2cc(NC(=O)C3CC3)ccc21` [compound 126, Cyclopropanecarboxylic acid (1-hydroxy-3,3-dimethyl-1,3-dihydro-benzo[c][1,2]oxaborol-6-yl)-amide], in that order: > 5 µg/mL and > 10 µg/mL.
As for `CC1(C)OB(O)c2cc(NC(=O)C3CCC3)ccc21` [compound 127, Cyclobutanecarboxylic acid (1-hydroxy-3,3-dimethyl-1,3-dihydro-benzo[c][1,2]oxaborol-6-yl)-amide], the IC50 in data set [1] (setting [3]) is 2.85 µg/mL (≈ 11 µM). Besides, in data set [2] (L929 mouse fibroblast cells), the IC50 at 72 h was > 10 µg/mL.
As for `CC1(C)OB(O)c2cc(NC(=O)C3CCCC3)ccc21` [compound 128, Cyclopentanecarboxylic acid (1-hydroxy-3,3-dimethyl-1,3-dihydro-benzo[c][1,2]oxaborol-6-yl)-amide], the IC50 in data set [1] (setting [3]) is > 5 µg/mL. In addition, in data set [2] (L929 mouse fibroblast cells), the IC50 at 72 h is > 10 µg/mL.
With `CC1(C)OB(O)c2cc(NC(=O)C3CCCCC3)ccc21` [compound 129, Cyclohexanecarboxylic acid (1-hydroxy-3,3-dimethyl-1,3-dihydro-benzo[c][1,2]oxaborol-6-yl)-amide], the IC50 in data set [1] (setting [3]) is > 5 µg/mL. The IC50 at 72 h in data set [2] (L929 mouse fibroblast cells) is > 10 µg/mL.
For `CC(=O)Nc1ccc2c(c1)B(O)OC2(C)C` [compound 130, N-(1-Hydroxy-3,3-dimethyl-1,3-dihydro-benzo[c][1,2]oxaborol-6-yl)-acetamide], in that order: > 5 µg/mL and > 10 µg/mL.
As for `CC1(C)OB(O)c2cc(NC(=O)C(F)(F)C(F)(F)C(F)(F)F)ccc21` [compound 131, 2,2,3,3,4,4,4-Heptafluoro-N-(1-hydroxy-3,3-dimethyl-1,3-dihydro-benzo[c][1,2]oxaborol-6-yl)-butyramide], the IC50 in data set [1] (setting [4]) was > 5 µg/mL. In addition, the IC50 at 72 h in data set [2] was > 10 µg/mL.
